Tests used:
Assay type in all cases: binding
[1] = molecular target: T1, p53-MDM2 interaction (human MDM2 protein, amino acids 2-188) (Homo sapiens, UniProt Q00987); experiment: p53-MDM2 Assay 1: TR-FRET inhibition of p53-MDM2 interaction; settings: 1.25 nM MDM2-biotinylated, 10 nM Cy5-p53 peptide
T1 construct: human MDM2 protein (amino acids 2-188); made in house
Procedure: (§1) Time Resolved Fluorescence Energy Transfer (TR-FRET) Assay
(§2) The inhibition of p53-MDM2 and p53-MDM4 interactions is measured by time resolved fluorescence energy transfer (TR-FRET). Fluorescence energy transfer (or Foerster resonance energy transfer) describes an energy transfer between donor and acceptor fluorescent molecules. For this assay, human MDM2 protein (amino acids 2-188) and human MDM4 protein (amino acids 2-185), tagged with a C-terminal biotin moiety, are used in combination with a Europium labeled streptavidin (Perkin Elmer, Inc., Waltham, Mass., USA) serving as the donor fluorophore. The p53 derived, Cy5 labeled peptide Cy5-TFSDLWKLL (p53 aa18-26) is the energy acceptor. Upon excitation of the donor molecule at 340 nm, binding interaction between MDM2 or MDM4 and the p53 peptide induces energy transfer and enhanced response at the acceptor emission wavelength at 665 nm. Disruption of the formation of the p53-MDM2 or p53-MDM4 complex due to an inhibitor molecule binding to the p53 binding site of MDM2 or MDM4 results in increased donor emission at 620 nm. The ratiometric FRET assay readout is calculated from the raw data of the two distinct fluorescence signals measured in time resolved mode (fluorescence 665 nm/fluorescence 620 nm×1000).
(§3) After addition of 1.25 nM MDM2-biotinylated or 2.5 nM MDM4-biotinylated (internal preparations, both MDM2 and MDM4 are biotinylated at the C-terminal of the peptide construct), and 0.625 nM Europium labeled streptavidin (Perkin Elmer), the solution is pre-incubated for 15 minutes at room temperature, then 10 nM Cy5-p53 peptide (internal preparation, the Cy5 dye is directly bound to the N-terminal part of p53 peptide construct) is added before an incubation at room temperature for 15 minutes prior to reading the plate. For measurement of samples, a Victor II microplate reader (Perkin Elmer) is used with the following settings: Excitation 340 nm, Emission Donor 620 nm and Emission Acceptor 665 nm. IC50 values are calculated by curve fitting using XLfit. If not specified, reagents are purchased from Sigma-Aldrich Chemie GmBH, Buchs, Switzerland.
(§4) This assay was used to evaluate compounds displaying inhibition of p53-MDM2 interaction and p53-MDM4 interaction at IC50s of 0.005 to 50 μM (p53-MDM2 Assay 1 and p53-MDM4 Assay 1, respectively). For selected compounds displaying IC50s between […] on MDM2, a slightly modified assay is used with the following adaptations: 0.1 nM MDM2, 0.1 nM Europium labeled streptavidin and Tecan genios Pro is used as a microplate reader for the fluorescence measurements (p53-MDM2 Assay 2).

[2] = molecular target: T2, p53-MDM4 interaction (human MDM4 protein, amino acids 2-185) (Homo sapiens, UniProt O15151); experiment: p53-MDM4 Assay 1: TR-FRET inhibition of p53-MDM4 interaction; settings: 2.5 nM MDM4-biotinylated, 10 nM Cy5-p53 peptide
T2 construct: human MDM4 protein (amino acids 2-185); made in house
T2 sequence (O15151 2-185): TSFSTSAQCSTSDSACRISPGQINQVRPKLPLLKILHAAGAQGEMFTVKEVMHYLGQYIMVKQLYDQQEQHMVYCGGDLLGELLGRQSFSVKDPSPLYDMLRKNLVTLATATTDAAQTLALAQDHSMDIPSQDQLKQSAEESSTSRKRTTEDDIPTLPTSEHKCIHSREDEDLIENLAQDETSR
Procedure: as §1, §2, §3, §4

[3] = molecular target: T1, p53-MDM2 interaction (human MDM2 protein, amino acids 2-188); experiment: p53-MDM2 Assay 2: slightly modified TR-FRET assay; settings: 0.1 nM MDM2, 0.1 nM Europium labeled streptavidin, Tecan genios Pro reader
Procedure: as §1, §2, §3, §4

T1 sequence (Q00987 2-188): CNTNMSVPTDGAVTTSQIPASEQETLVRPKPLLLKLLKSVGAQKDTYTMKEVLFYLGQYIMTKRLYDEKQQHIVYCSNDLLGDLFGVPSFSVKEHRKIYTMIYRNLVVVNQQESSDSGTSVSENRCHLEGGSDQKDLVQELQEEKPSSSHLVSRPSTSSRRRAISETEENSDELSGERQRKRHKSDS

Row | IC50 [1] | IC50 [2] | IC50 [3] | Compound
1 | 62.2 nM | 19100 nM | – | COc1ccccc1-n1nc2c(c1C(C)C)[C@@H](c1ccc(Cl)cc1C)N(c1cccc(Cl)c1F)C(=O)N2 [Example 7, (R)-5-(3-Chloro-2-fluoro-phenyl)-4-(4-chloro-2-methyl-phenyl)-3-isopropyl-2-(2-methoxy-phenyl)-2,4,5,7-tetrahydro-pyrazolo[3,4-d]pyrimidin-6-one]
2 | 6.6 nM | 11600 nM | – | COc1ccccc1-n1nc2c(c1C(C)C)C(c1ccc(Cl)cc1)N(c1cc(Cl)ccc1OCCN(C)C)C(=O)N2 (stereo not shown) [Example 17, 5-(5-Chloro-2-(3-(dimethylamino)ethoxy)phenyl)-4-(4-chlorophenyl)-3-isopropyl-2-(2-methoxyphenyl)-4,5-dihydro-2H-pyrazolo[3,4-d]pyrimidin-6(7H)-one]
3 | – | – | 0.29 nM | COc1ncc(-n2nc3c(c2C(C)C)C(c2ccc(Cl)cc2C)N(c2cc(Cl)c(=O)n(C)c2)C(=O)N3)c(OC)n1 (stereo not shown) [Example 31, 5-(5-Chloro-1-methyl-6-oxo-1,6-dihydropyridin-3-yl)-4-(4-chloro-2-methylphenyl)-2-(2,4-dimethoxypyrimidin-5-yl)-3-isopropyl-4,5-dihydro-2H-pyrazolo[3,4-d]pyrimidin-6(7H)-one]
4 | 5.6 nM | 8570 nM | – | COCCn1cc(N2C(=O)Nc3nn(-c4ccccc4OC)c(C(C)C)c3C2c2ccc(Cl)cc2)cc(Cl)c1=O (stereo not shown) [Example 16, 5-[5-Chloro-1-(2-methoxy-ethyl)-6-oxo-1,6-dihydro-pyridin-3-yl]-4-(4-chloro-phenyl)-3-isopropyl-2-(2-methoxy-phenyl)-2,4,5,7-tetrahydro-pyrazolo[3,4-d]pyrimidin-6-one]
5 | 16.7 nM | 41700 nM | – | Cc1cc(Cl)ccc1C1c2c(nn(CCN(C)C)c2C(C)C)NC(=O)N1c1cccc(Cl)c1F (stereo not shown) [Example 9, 5-(3-chloro-2-fluoro-phenyl)-4-(4-chloro-2-methyl-phenyl)-2-(2-dimethylamino-ethyl)-3-isopropyl-2,4,5,7-tetrahydro-pyrazolo[3,4-d]pyrimidin-6-one]
6 | – | – | 0.18 nM | COc1ccc(CN)cc1-n1nc2c(c1C(C)C)C(c1ccc(Cl)cc1C)N(c1cc(Cl)c(=O)n(C)c1)C(=O)N2 (stereo not shown) [Example 29, 2-(5-(Aminomethyl)-2-methoxyphenyl)-5-(5-chloro-1-methyl-6-oxo-1,6-dihydropyridin-3-yl)-4-(4-chloro-2-methylphenyl)-3-isopropyl-4,5-dihydro-2H-pyrazolo[3,4-d]pyrimidin-6(7H)-one]
7 | – | – | 0.24 nM | COc1ccc(C(N)=O)cc1-n1nc2c(c1C(C)C)C(c1ccc(Cl)cc1C)N(c1cc(Cl)ccc1C)C(=O)N2 (stereo not shown) [Example 28, 3-(4-(4-Chloro-2-methylphenyl)-5-(5-chloro-2-methylphenyl)-3-isopropyl-6-oxo-4,5,6,7-tetrahydro-2H-pyrazolo[3,4-d]pyrimidin-2-yl)-4-methoxybenzamide]
8 | – | – | 0.21 nM | COc1ncc(-n2nc3c(c2C(C)C)C(c2ccc(Cl)cc2C)N(c2cc(Cl)cn(C)c2=O)C(=O)N3)c(OC)n1 (stereo not shown) [Example 32, 5-(5-Chloro-1-methyl-2-oxo-1,2-dihydropyridin-3-yl)-4-(4-chloro-2-methylphenyl)-2-(2,4-dimethoxypyrimidin-5-yl)-3-isopropyl-4,5-dihydro-2H-pyrazolo[3,4-d]pyrimidin-6(7H)-one]
9 | 146 nM | 39700 nM | – | Cc1cc(Cl)ccc1[C@@H]1c2c(nn(Cc3ccccc3)c2C(C)C)NC(=O)N1c1cccc(Cl)c1F [Example 3, (R)-2-Benzyl-5-(3-chloro-2-fluorophenyl)-4-(4-chloro-2-methylphenyl)-3-isopropyl-4,5-dihydro-2H-pyrazolo[3,4-d]pyrimidin-6(7H)-one]
10 | 2.5 nM | 2360 nM | – | COc1ccccc1-n1nc2c(c1C(C)C)C(c1ccc(Cl)cc1C)N(c1cc(Cl)ccc1OCCN(C)C)C(=O)N2 (stereo not shown) [Example 12, 5-[5-Chloro-2-(2-dimethylamino-ethoxy)-phenyl]-4-(4-chloro-2-methyl-phenyl)-3-isopropyl-2-(2-methoxy-phenyl)-2,4,5,7-tetrahydro-pyrazolo[3,4-d]pyrimidin-6-one]
11 | – | – | 0.21 nM | COc1ccc(CNC(C)=O)cc1-n1nc2c(c1C(C)C)C(c1ccc(Cl)cc1C)N(c1cc(Cl)c(=O)n(C)c1)C(=O)N2 (stereo not shown) [Example 30, N-(3-(5-(5-Chloro-1-methyl-6-oxo-1,6-dihydropyridin-3-yl)-4-(4-chloro-2-methylphenyl)-3-isopropyl-6-oxo-4,5,6,7-tetrahydro-2H-pyrazolo[3,4-d]pyrimidin-2-yl)-4-methoxybenzyl)acetamide]
12 | – | – | 0.14 nM | COc1ccc(C#N)cc1-n1nc2c(c1C(C)C)C(c1ccc(Cl)cc1C)N(c1cc(Cl)c(=O)n(C)c1)C(=O)N2 (stereo not shown) [Example 24, 3-(5-(5-Chloro-1-methyl-6-oxo-1,6-dihydropyridin-3-yl)-4-(4-chloro-2-methylphenyl)-3-isopropyl-6-oxo-4,5,6,7-tetrahydro-2H-pyrazolo[3,4-d]pyrimidin-2-yl)-4-methoxybenzonitrile]
13 | – | – | 0.12 nM | COc1ccc(CN)cc1-n1nc2c(c1C(C)C)C(c1ccc(Cl)cc1C)N(c1cc(Cl)ccc1C)C(=O)N2 (stereo not shown) [Example 25, 2-(5-(Aminomethyl)-2-methoxyphenyl)-4-(4-chloro-2-methylphenyl)-5-(5-chloro-2-methylphenyl)-3-isopropyl-4,5-dihydro-2H-pyrazolo[3,4-d]pyrimidin-6(7H)-one]
14 | – | – | 0.15 nM | COc1ccc(C#N)cc1-n1nc2c(c1C(C)C)C(c1ccc(Cl)cc1C)N(c1cc(Cl)ccc1C)C(=O)N2 (stereo not shown) [Example 23, 3-(4-(4-Chloro-2-methylphenyl)-5-(5-chloro-2-methylphenyl)-3-isopropyl-6-oxo-4,5,6,7-tetrahydro-2H-pyrazolo[3,4-d]pyrimidin-2-yl)-4-methoxybenzonitrile]
15 | 1.8 nM | 34700 nM | – | Cc1cc(Cl)ccc1C1c2c(nn(Cc3ccccc3)c2C(C)C)NC(=O)N1c1cccc(Cl)c1F (stereo not shown) [Example 1, 2-Benzyl-5-(3-chloro-2-fluoro-phenyl)-4-(4-chloro-2-methyl-phenyl)-3-isopropyl-2,4,5,7-tetrahydro-pyrazolo[3,4-d]pyrimidin-6-one]
16 | 4.8 nM | 4730 nM | – | COc1ccccc1-n1nc2c(c1C(C)C)C(c1ccc(Cl)cc1)N(c1ccc(=O)n(C)c1)C(=O)N2 (stereo not shown) [Example 20, 4-(4-Chloro-phenyl)-3-isopropyl-2-(2-methoxy-phenyl)-5-(1-methyl-6-oxo-1,6-dihydro-pyridin-3-yl)-2,4,5,7-tetrahydro-pyrazolo[3,4-d]pyrimidin-6-one]
17 | 1.8 nM | 18500 nM | – | Cc1cc(Cl)ccc1[C@H]1c2c(nn(Cc3ccccc3)c2C(C)C)NC(=O)N1c1cccc(Cl)c1F [Example 2, (S)-2-Benzyl-5-(3-chloro-2-fluorophenyl)-4-(4-chloro-2-methylphenyl)-3-isopropyl-4,5-dihydro-2H-pyrazolo[3,4-d]pyrimidin-6(7H)-one]
18 | – | – | 0.13 nM | COc1ccc(CNC(C)=O)cc1-n1nc2c(c1C(C)C)C(c1ccc(Cl)cc1C)N(c1cc(Cl)ccc1C)C(=O)N2 (stereo not shown) [Example 26, N-(3-(4-(4-Chloro-2-methylphenyl)-5-(5-chloro-2-methylphenyl)-3-isopropyl-6-oxo-4,5,6,7-tetrahydro-2H-pyrazolo[3,4-d]pyrimidin-2-yl)-4-methoxybenzyl)acetamide]
19 | – | – | 0.11 nM | COc1ccc(CNC=O)cc1-n1nc2c(c1C(C)C)C(c1ccc(Cl)cc1C)N(c1cc(Cl)ccc1C)C(=O)N2 (stereo not shown) [Example 27, N-(3-(4-(4-Chloro-2-methylphenyl)-5-(5-chloro-2-methylphenyl)-3-isopropyl-6-oxo-4,5,6,7-tetrahydro-2H-pyrazolo[3,4-d]pyrimidin-2-yl)-4-methoxybenzyl)formamide]
